# What was measured:
# incision wound = test: Incised wound healing test in rats; assay type: in vivo, SD rats; conditions: 1% ointment, 0.2 g/day for 4 days; four days after incision
# Text: SD rats (male, 12-week-old) were clipped of hairs and divided into groups of 10 animals to make the mean body weights of the groups roughly the same, and subjected to the test. Each animal was given an incision wound along the median line under diethyl ether anesthesia. The incision wound was stapled at three sites using Michel's clips, and a 1% oxidized coenzyme Q10 ointment or a 1% reduced coenzyme Q10 ointment was applied at a dose of 0.2 g/day for 4 days. Two control groups, namely a nontreated group and an ointment base group treated with the same dose of the ointment base, were used. Three days after incision, the Michel's clips were removed and, four days after incision, each animal was euthanized by overanesthesia with diethyl ether, the skin around the incision was peeled off, and skin sections were prepared. The skin sections were measured for tension on a tensile tester.
# [1] = Percutaneous absorption test (coenzyme Q10 in skin after dermal application); assay type: in vivo, hairless rats; conditions: for Coenzyme Q10 concentration in skin / Reduced coenzyme Q10 concentration in skin: mean ± SD
# Procedure: The test sample 1 and comparative sample 1 were used as test substances. The test was carried out using male hairless rats (weighing 250 to 300 g) fed under well-fed conditions. A 0.1-g portion of the test sample 1, comparative sample 1, or PEG 1500 as a control was applied to an area of 3 cm square on the back of each hairless rat lightly anesthetized with ether. Three hours, 8 hours or 24 hours after application, the rat was sacrificed by euthanasia, the applied area was washed thoroughly, and a skin sample was taken. The skin sample was homogenized and extracted with propanol, the extract was concentrated using a solid phase column, and the amount of coenzyme Q10 in the skin was determined by high-performance liquid chromatography.
# Each of the skin samples mentioned above was homogenized and extracted with hexane, the extract was evaporated to dryness and dissolved in ethanol, and the proportion of reduced coenzyme Q10 in skin was determined by high-performance liquid chromatography with an electrochemical detector. Each numerical value means the mean±standard deviation.
# The test was carried out in the same manner as in Example 1 using the test samples 2, 3, 4 and 5 as well as the comparative sample 1 as test samples.
# In FIG. 1, the vertical axis denotes the total amount of coenzyme Q10 and the amount of reduced coenzyme Q10 in skin at 3 hours after application, and the horizontal axis denotes the content (% by weight) of reduced coenzyme Q10 relative to the total amount of coenzyme Q10 in the sample applied. Each bar indicates the mean value.
# [2] = as compared with 100% oxidized coenzyme Q10
Compound,"Skin repair (tension of skin sections on a tensile tester, in words) (incision wound)","Coenzyme Q10 concentration in skin, relative value in parentheses (oxidized coenzyme Q10 = 100) ([1]; 3 hr)","Reduced coenzyme Q10 concentration in skin, relative value in parentheses (oxidized coenzyme Q10 = 100) ([1]; 3 hr)",Coenzyme Q10 concentration in skin ([1]; 3 hr after application of 0.1 g PEG 1500 ointment (0.1 g coenzyme Q10 per 10 ml) to 3 cm square back skin) [µg/g],"Reduced coenzyme Q10 concentration in skin ([1]; 3 hr after application, HPLC with electrochemical detector) [µg/g]","Coenzyme Q10 concentration in skin, relative value in parentheses (oxidized coenzyme Q10 = 100) ([1]; 8 hr)","Reduced coenzyme Q10 concentration in skin, relative value in parentheses (oxidized coenzyme Q10 = 100) ([1]; 8 hr)",Coenzyme Q10 concentration in skin ([1]; 8 hr after application of 0.1 g PEG 1500 ointment to back skin) [µg/g],Reduced coenzyme Q10 concentration in skin ([1]; 8 hr after application) [µg/g],"Coenzyme Q10 concentration in skin, relative value in parentheses (oxidized coenzyme Q10 = 100) ([1]; 24 hr)","Reduced coenzyme Q10 concentration in skin, relative value in parentheses (oxidized coenzyme Q10 = 100) ([1]; 24 hr)",Coenzyme Q10 concentration in skin ([1]; 24 hr after application of 0.1 g PEG 1500 ointment to back skin) [µg/g],Reduced coenzyme Q10 concentration in skin ([1]; 24 hr after application) [µg/g],"Increase of the amount of coenzyme Q10 in skin (in words) [1, 2]","Increase of the amount of reduced coenzyme Q10 in skin (in words) [1, 2]"
"COC1=C(OC)C(=O)C(C/C=C(\C)CC/C=C(\C)CC/C=C(\C)CC/C=C(\C)CC/C=C(\C)CC/C=C(\C)CC/C=C(\C)CC/C=C(\C)CC/C=C(\C)CCC=C(C)C)=C(C)C1=O [Oxidized coenzyme Q10, oxidized coenzyme Q10, reference compound]",skin repair promoting effect,,,,,,,,,,,,,,
"COc1c(O)c(C)c(C/C=C(\C)CC/C=C(\C)CC/C=C(\C)CC/C=C(\C)CC/C=C(\C)CC/C=C(\C)CC/C=C(\C)CC/C=C(\C)CC/C=C(\C)CCC=C(C)C)c(O)c1OC [Reduced coenzyme Q10, reduced coenzyme Q10]",skin repair promoting effect,(165***),(414***),13.72 ± 0.70,12.55 ± 0.51,(228*),(317**),17.96 ± 4.85,15.84 ± 4.56,(206*),(239*),15.68 ± 3.95,12.99 ± 4.81,very effective in increasing the amount of coenzyme Q10 in skin,very effective in increasing the amount of reduced coenzyme Q10 in skin
